Laboratory results reported in ChEMBL document CHEMBL1201862, “PubChem BioAssay data set” (2004).
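Growth conditions: 96-well plates. Treatment: test compound, 48 hours, 5 concentrations. Analysis: linear interpolation between bracketing concentrations; unreached endpoints set to highest concentration. GI50 = concentration required for 50% inhibition of growth.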 Calls of active or inactive are those of the source. Rule as the data show it: active = GI50 up to about 1.1 µM and inactive = higher.

Experiments:
Test in all cases: NCI anticancer screen, dose series, 48 h
[1] = system: A498
[2] = system: BT-549
[3] = system: CCRF-CEM
[4] = system: EKVX
[5] = system: HCC 2998
[6] = system: HCT-15
[7] = system: HT-29
[8] = system: Hs-578T
[9] = system: MCF7
[10] = system: MDA-N
[11] = system: NCI-H23
[12] = system: NCI-H460
[13] = system: NCI-H522
[14] = system: OVCAR-3
[15] = system: SF-295
[16] = system: SK-OV-3
[17] = system: SN12C
[18] = system: SNB-75
[19] = system: SW-620
[20] = system: U-251

Row | SMILES | GI50 [1] | GI50 [2] | GI50 [3] | GI50 [4] | GI50 [5] | GI50 [6] | GI50 [7] | GI50 [8] | GI50 [9] | GI50 [10] | GI50 [11] | GI50 [12] | GI50 [13] | GI50 [14] | GI50 [15] | GI50 [16] | GI50 [17] | GI50 [18] | GI50 [19] | GI50 [20]
1 | CCOC(=O)CCC(NC(=O)c1ccc(OCc2nc3ccccc3n3cccc23)cc1)C(=O)OCC (stereo not given) | > 100 µM (inactive) | 71.9 µM (inactive) | 4.34 µM (inactive) | > 100 µM (inactive) | > 100 µM (inactive) | 50.6 µM | 25.5 µM (inactive) | 64.4 µM (inactive) | 39.2 µM (inactive) | > 100 µM (inactive) | 29.9 µM (inactive) | > 100 µM (inactive) | 6.59 µM (inactive) | 63.7 µM (inactive) | 64.3 µM (inactive) | > 100 µM (inactive) | > 100 µM (inactive) | 29.2 µM (inactive) | 11.6 µM (inactive) | 17.3 µM (inactive)
2 | O=[N+]([O-])C1=Cc2c(O)ccc(O)c2C2OC=CC12 (stereo not given) | 15.7 µM (inactive) | 14.6 µM (inactive) | 8.89 µM (inactive) | 19.5 µM (inactive) | 27.4 µM (inactive) | 18.5 µM | 19.6 µM (inactive) | 29.2 µM (inactive) | 13.6 µM (inactive) | 5.97 µM (inactive) | 15.5 µM (inactive) | 19.7 µM (inactive) | 3.83 µM (inactive) | 7.94 µM (inactive) | 16.3 µM (inactive) | > 60.4 µM (inactive) | 18.2 µM (inactive) | 21.6 µM (inactive) | 30 µM (inactive) | 16.1 µM (inactive)
3 | CCOC(=O)c1cc(C2CCN(c3ccccc3)C2=O)c(C(=O)/C=C(/C)N)[nH]1 (stereo not given) | 57 µM (inactive) | > 100 µM (inactive) | > 100 µM (inactive) | 23.6 µM (inactive) | > 100 µM (inactive) | > 100 µM | 12.9 µM (inactive) | 14.9 µM (inactive) | 54.6 µM (inactive) | 71.4 µM (inactive) | 92.3 µM (inactive) | 33.2 µM (inactive) | 18.5 µM (inactive) | 39.6 µM (inactive) | 15.9 µM (inactive) | 16.6 µM (inactive) | 21.8 µM (inactive) | 8.05 µM (inactive) | 45.8 µM (inactive) | 15 µM (inactive)
4 | COC(=O)c1c2c(c3[nH]c4ccccc4c3c1C(=O)OC)C(=O)C1=C(C2=O)C2(Cl)C(Cl)C(Cl)C1(Cl)C2(Cl)Cl (stereo not given) | 0.432 µM (active) | 1.96 µM (inactive) | 1.89 µM (inactive) | 3.92 µM (inactive) | 2.91 µM (inactive) | 1.48 µM | 2.55 µM (inactive) | 3.13 µM (inactive) | 0.705 µM (active) | 0.6 µM (active) | 1.7 µM (inactive) | 3.2 µM (inactive) | 1.38 µM (inactive) | 2.33 µM (inactive) | 3.63 µM (inactive) | 4.36 µM (inactive) | 1.94 µM (inactive) | 2.39 µM (inactive) | 0.353 µM (active) | 2.42 µM (inactive)
5 | COC(=O)C1(Cc2ccc3c(c2)CCC3)Cc2ccc3c(c2C1)CCC3 (stereo not given) | 22.3 µM (inactive) | 21.6 µM (inactive) | 70.6 µM (inactive) | 31.3 µM (inactive) | 34.5 µM (inactive) | 25 µM | 14.9 µM (inactive) | 17.4 µM (inactive) | 13.2 µM (inactive) | 13.2 µM (inactive) | 1.48 µM (inactive) | 24.8 µM (inactive) | 18.4 µM (inactive) | 20.3 µM (inactive) | 20.7 µM (inactive) | 52.8 µM (inactive) | 17.5 µM (inactive) | > 100 µM (inactive) | 25.2 µM (inactive) | 17.3 µM (inactive)
6 | Clc1cc(Cl)cc(/C=N/C23CC4CC(CC(C4)C2)C3)c1 | > 10 µM (inactive) | > 10 µM (inactive) | > 10 µM (inactive) | > 10 µM (inactive) | > 10 µM (inactive) | > 10 µM | > 10 µM (inactive) | > 10 µM (inactive) | 7.59 µM (inactive) | > 10 µM (inactive) | > 10 µM (inactive) | > 10 µM (inactive) | > 10 µM (inactive) | > 10 µM (inactive) | > 10 µM (inactive) | > 10 µM (inactive) | > 10 µM (inactive) | > 10 µM (inactive) | > 10 µM (inactive) | > 10 µM (inactive)
7 | CC(C)(C)OC(=O)C(C1NC(C(=O)O)C(C)(C)S1)N1C(=O)c2ccccc2C1=O (stereo not given) | > 100 µM (inactive) | > 100 µM (inactive) | > 100 µM (inactive) | > 100 µM (inactive) | > 100 µM (inactive) | > 100 µM | > 100 µM (inactive) | > 100 µM (inactive) | > 100 µM (inactive) | > 100 µM (inactive) | > 100 µM (inactive) | > 100 µM (inactive) | > 100 µM (inactive) | > 100 µM (inactive) | > 100 µM (inactive) | > 100 µM (inactive) | > 100 µM (inactive) | > 100 µM (inactive) | > 100 µM (inactive) | > 100 µM (inactive)
